Assay results: PMC5576976 (Translational Oncology, 2017)

Biological target: IMP1 (insulin-like growth factor-2 mRNA-binding protein 1) (Homo sapiens, UniProt Q9NZI8)
Experiment: fluorescence anisotropy/polarization microplate assay

Chain of IMP1 (insulin-like growth factor-2 mRNA-binding protein 1) (Q9NZI8 whole entry): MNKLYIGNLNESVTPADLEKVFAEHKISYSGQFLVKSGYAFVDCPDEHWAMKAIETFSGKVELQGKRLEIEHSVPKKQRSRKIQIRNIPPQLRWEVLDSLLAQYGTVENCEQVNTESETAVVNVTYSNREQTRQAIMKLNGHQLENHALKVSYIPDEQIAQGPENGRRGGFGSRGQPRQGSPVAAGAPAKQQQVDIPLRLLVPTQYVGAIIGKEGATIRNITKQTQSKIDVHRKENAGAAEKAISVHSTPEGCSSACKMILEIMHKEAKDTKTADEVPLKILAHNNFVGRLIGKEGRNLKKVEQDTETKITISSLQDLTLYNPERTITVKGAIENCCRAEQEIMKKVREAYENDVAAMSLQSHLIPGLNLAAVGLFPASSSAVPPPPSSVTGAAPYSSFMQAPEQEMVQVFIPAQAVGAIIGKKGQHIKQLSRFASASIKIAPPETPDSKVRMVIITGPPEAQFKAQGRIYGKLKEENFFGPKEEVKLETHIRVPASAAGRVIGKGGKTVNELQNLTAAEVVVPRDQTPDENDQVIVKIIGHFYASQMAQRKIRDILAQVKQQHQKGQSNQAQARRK

IC50: 5 µM
Structure (SMILES): NC(=O)c1ccccc1N=Cc1ccc(Br)s1 [BTYNB, 2-{[(5-bromo-2-thienyl)methylene]amino}benzamide]
